{
  "source": "patent US20230131025A1",
  "about": "“QUINOLYL PHOSPHINE OXIDE COMPOUND, AND COMPOSITION AND APPLICATION THEREOF” (Betta Pharmaceuticals Co., Ltd., priority 2020, published 2023)",
  "key": {"[1]": {"target": "EGFR WT (Homo sapiens, UniProt P00533)", "sequence (P00533 25-1210)": "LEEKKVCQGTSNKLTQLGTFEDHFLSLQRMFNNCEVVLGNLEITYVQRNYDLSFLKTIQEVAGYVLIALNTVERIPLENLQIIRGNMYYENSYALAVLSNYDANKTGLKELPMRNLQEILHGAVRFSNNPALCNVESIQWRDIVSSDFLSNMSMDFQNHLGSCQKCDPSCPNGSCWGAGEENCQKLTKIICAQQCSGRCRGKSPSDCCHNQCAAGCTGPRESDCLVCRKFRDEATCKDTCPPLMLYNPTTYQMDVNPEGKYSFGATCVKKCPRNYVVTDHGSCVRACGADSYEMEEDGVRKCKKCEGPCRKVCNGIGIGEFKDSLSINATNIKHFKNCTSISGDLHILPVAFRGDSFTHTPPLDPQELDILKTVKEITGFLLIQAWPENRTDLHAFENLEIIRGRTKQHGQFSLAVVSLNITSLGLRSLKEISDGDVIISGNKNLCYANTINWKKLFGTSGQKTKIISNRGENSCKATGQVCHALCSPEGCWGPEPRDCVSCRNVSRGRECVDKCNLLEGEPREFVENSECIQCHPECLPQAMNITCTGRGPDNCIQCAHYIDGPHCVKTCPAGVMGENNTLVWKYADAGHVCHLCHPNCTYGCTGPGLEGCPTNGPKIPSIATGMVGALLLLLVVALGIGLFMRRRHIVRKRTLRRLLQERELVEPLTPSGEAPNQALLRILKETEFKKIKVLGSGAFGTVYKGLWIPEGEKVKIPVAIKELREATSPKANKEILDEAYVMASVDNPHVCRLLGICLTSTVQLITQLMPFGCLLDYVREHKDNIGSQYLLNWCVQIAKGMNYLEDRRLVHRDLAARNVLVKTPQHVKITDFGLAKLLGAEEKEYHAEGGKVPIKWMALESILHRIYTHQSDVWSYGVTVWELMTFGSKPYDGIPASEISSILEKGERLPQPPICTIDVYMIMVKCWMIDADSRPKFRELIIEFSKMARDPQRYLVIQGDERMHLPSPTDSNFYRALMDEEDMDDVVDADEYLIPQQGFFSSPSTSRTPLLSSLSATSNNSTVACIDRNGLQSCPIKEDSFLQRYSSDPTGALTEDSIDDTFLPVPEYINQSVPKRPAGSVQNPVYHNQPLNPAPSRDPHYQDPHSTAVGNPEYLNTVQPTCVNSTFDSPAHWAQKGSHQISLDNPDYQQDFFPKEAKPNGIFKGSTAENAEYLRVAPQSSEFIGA", "experiment": "Kinase inhibition assay (mobility shift)", "assay_type": "biochemical", "in_short": "(§1)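 Caliper mobility-shift read of substrate conversion after kinase-compound preincubation 10 min at room temperature, then ATP/substrate addition and reaction at room temperature. Ten-point 3-fold dilutions from 3,000 or 100 nM top; IC50 from variable-slope four-parameter fit of percent inhibition.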"}, "[2]": {"target": "EGFR Δ19del/T790M/C797S (Homo sapiens, UniProt P00533, T790M/C797S, form not given)", "sequence (P00533 with tags, fused parts or gaps DEL746-750/T790M/C797S, form open)": "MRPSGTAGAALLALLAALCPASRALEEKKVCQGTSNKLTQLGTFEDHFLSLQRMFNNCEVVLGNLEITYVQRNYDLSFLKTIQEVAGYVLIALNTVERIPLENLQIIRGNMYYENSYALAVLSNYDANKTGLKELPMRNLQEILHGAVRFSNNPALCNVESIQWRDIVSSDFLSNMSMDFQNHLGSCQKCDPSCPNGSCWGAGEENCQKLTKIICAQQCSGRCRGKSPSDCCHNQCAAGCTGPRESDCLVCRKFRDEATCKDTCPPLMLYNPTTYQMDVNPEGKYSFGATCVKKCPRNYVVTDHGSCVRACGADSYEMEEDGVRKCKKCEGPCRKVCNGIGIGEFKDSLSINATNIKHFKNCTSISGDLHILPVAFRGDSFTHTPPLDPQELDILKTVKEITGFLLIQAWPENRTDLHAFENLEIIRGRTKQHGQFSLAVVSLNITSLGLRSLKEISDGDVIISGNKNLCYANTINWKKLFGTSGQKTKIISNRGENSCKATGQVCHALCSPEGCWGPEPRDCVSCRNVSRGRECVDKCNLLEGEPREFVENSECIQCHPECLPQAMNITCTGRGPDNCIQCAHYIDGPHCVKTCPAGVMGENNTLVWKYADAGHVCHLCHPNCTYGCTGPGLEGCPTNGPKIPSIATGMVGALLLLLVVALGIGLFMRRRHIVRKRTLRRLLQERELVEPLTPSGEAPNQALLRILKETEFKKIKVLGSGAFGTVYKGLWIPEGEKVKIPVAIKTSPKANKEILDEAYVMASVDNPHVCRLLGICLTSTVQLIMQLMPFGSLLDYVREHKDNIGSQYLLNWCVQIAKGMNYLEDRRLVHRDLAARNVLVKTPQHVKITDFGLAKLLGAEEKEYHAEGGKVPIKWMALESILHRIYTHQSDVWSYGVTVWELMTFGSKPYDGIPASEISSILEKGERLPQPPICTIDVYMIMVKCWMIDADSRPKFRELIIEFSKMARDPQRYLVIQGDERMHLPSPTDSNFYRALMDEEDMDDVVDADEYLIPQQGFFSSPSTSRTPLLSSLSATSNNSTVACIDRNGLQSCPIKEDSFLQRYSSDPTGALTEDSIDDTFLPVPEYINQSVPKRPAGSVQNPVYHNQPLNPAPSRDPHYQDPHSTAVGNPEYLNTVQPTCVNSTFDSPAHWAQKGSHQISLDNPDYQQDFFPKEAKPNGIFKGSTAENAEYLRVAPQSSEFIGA", "experiment": "Kinase inhibition assay (mobility shift)", "assay_type": "biochemical", "in_short": "as §1"}, "[3]": {"target": "IGF1R (Homo sapiens, UniProt P08069)", "sequence (P08069 31-1367, species assumed)": "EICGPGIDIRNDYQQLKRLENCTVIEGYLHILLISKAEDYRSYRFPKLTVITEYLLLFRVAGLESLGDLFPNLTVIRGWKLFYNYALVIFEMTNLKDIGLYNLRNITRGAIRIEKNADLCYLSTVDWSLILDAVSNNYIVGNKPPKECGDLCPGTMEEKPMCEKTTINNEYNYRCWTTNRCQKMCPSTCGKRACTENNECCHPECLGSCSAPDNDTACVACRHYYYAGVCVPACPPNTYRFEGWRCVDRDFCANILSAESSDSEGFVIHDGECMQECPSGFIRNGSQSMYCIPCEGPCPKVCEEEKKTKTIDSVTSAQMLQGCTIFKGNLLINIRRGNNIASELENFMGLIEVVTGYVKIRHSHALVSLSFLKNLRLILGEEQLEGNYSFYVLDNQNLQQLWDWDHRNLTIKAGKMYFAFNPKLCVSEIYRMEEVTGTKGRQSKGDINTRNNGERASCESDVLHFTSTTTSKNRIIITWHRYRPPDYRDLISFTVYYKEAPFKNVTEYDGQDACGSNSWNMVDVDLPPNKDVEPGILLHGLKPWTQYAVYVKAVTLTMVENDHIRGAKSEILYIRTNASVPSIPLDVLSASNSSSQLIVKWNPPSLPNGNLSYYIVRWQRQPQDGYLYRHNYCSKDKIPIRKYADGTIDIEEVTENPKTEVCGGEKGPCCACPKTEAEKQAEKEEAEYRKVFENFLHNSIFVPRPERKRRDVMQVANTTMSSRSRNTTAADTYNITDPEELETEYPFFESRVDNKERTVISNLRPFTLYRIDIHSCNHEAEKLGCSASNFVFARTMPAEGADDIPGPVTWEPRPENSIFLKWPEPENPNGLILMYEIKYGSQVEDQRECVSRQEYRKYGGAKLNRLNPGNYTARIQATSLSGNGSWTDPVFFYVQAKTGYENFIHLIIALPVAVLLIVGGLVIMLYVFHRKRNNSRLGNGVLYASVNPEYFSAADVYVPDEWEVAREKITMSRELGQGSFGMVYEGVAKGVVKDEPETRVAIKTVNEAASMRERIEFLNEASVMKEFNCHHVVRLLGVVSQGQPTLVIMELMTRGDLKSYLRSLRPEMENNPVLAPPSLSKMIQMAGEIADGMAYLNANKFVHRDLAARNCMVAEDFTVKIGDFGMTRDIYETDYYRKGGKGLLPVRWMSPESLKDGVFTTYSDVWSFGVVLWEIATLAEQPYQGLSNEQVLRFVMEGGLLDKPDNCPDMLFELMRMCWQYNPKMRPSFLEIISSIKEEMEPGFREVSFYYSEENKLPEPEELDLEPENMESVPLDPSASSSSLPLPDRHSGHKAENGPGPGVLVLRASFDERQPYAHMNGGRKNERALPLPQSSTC", "experiment": "Kinase inhibition assay (mobility shift)", "assay_type": "biochemical", "in_short": "as §1"}, "[4]": {"test_system": "human epidermal cancer cells A431 carrying EGFR WT", "experiment": "Cell proliferation experiment (CellTiter Glo, 72 hours)", "assay_type": "cell-based", "conditions": "Homo sapiens, A-431", "in_short": "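Cells seeded at 2000 or 3000/well and exposed 72 h to 9-point 3-fold dilutions, top final 10000 nM or 1111 nM, 0.1% DMSO. Viability by CellTiter-Glo luminescence. Inhibition relative to cell and medium controls; IC50 by four-parameter nonlinear regression.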"}, "[5]": {"experiment": "In vivo safety experiment (body weight, tolerance)", "experimental": "The safety evaluation of the drug was carried out in BALB/c nude mice. […] They were fed in an SPF environment, and each cage was individually ventilated (5 mice per cage). All cages, bedding and water were disinfected prior to use. Mice were purchased from Viton Lever and were allowed to acclimate in the laboratory. Mice were administered orally QD."}},
  "data": [
    {"compound": "COc1cc(N2CCC(N3CCN(C)CC3)CC2)c(C)cc1Nc1ncc(Br)c(Nc2ccc3nc(C4CC4)ccc3c2P(C)(C)=O)n1", "note": "[Compound J-022, (6-((5-Bromo-2-((2-methoxy-5-methyl-4-(4-(4-methylpiperazin-1-yl)piperidin-1-yl)phenyl)amino)pyrimidin-4-yl)amino)-2-cyclopropylquinolin-5-yl)dimethylphosphine oxide]", "values": [
      {"measurement": "IC50", "setting": "[1]", "value": 20.2, "unit": "nM"},
      {"measurement": "IC50", "setting": "[2]", "value": 0.3, "unit": "nM"},
      {"measurement": "IC50", "setting": "[3]", "value": 195, "unit": "nM"},
      {"measurement": "IC50", "setting": "[4]", "value": 1130, "unit": "nM"},
      {"measurement": "Body weight of mouse", "setting": "[5]; 75 mg/kg/day oral QD, 0 days", "value": 18.7, "unit": "g"},
      {"measurement": "Body weight of mouse", "setting": "[5]; 75 mg/kg/day oral QD, 2 days", "value": 18.9, "unit": "g"},
      {"measurement": "Body weight of mouse", "setting": "[5]; 75 mg/kg/day oral QD, 4 days", "value": 19.2, "unit": "g"},
      {"measurement": "Body weight of mouse", "setting": "[5]; 75 mg/kg/day oral QD, 6 days", "value": 19.4, "unit": "g"},
      {"measurement": "Body weight of mouse", "setting": "[5]; 100 mg/kg/day oral QD, 0 days", "value": 18.7, "unit": "g"},
      {"measurement": "Body weight of mouse", "setting": "[5]; 100 mg/kg/day oral QD, 2 days", "value": 18.6, "unit": "g"},
      {"measurement": "Body weight of mouse", "setting": "[5]; 100 mg/kg/day oral QD, 4 days", "value": 19.0, "unit": "g"},
      {"measurement": "Body weight of mouse", "setting": "[5]; 100 mg/kg/day oral QD, 6 days", "value": 19.2, "unit": "g"},
      {"measurement": "Body weight of mouse", "setting": "[5]; 150 mg/kg/day oral QD, 0 days", "value": 18.7, "unit": "g"},
      {"measurement": "Body weight of mouse", "setting": "[5]; 150 mg/kg/day oral QD, 2 days", "value": 18.3, "unit": "g"},
      {"measurement": "Body weight of mouse", "setting": "[5]; 150 mg/kg/day oral QD, 4 days", "value": 18.5, "unit": "g"},
      {"measurement": "Body weight of mouse", "setting": "[5]; 150 mg/kg/day oral QD, 6 days", "value": 18.4, "unit": "g"},
      {"measurement": "Change in the body weight of mice", "setting": "[5]; 150 mg/kg/day oral, 7 days", "value": "no significant change"},
      {"measurement": "Tolerability", "setting": "[5]; 150 mg/kg/day, 7 days", "value": "tolerable"},
      {"measurement": "window from the effective dose to the intolerance dose", "setting": "[5]; effective dose = dose corresponding to 50% TGI", "value": "greater than 15 times"}
    ]}
  ]
}
